# Biological target: T1, 20S proteasome (chymotrypsin-like activity) (Homo sapiens, UniProt P28074)
# T1 sequence (P28074 60-263): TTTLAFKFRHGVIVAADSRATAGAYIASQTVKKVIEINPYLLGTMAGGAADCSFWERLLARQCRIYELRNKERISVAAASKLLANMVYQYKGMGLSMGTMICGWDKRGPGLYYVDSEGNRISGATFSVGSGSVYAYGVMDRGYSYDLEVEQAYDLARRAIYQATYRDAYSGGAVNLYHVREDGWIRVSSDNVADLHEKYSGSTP
# Assay: fluorogenic Suc-LLVY-AMC hydrolysis by purified […] proteasome
# Format: biochemical
row,SMILES,IC50 [µM]
1,"O=C([O-])Cc1c[nH]c2ccccc12.O=C([O-])Cc1c[nH]c2ccccc12.O=C([O-])Cc1c[nH]c2ccccc12.O=C([O-])Cc1c[nH]c2ccccc12.[Cu+2].[Cu+2] [compound 3, Complex 3]",3
2,"O=C([O-])CCc1c[nH]c2ccccc12.O=C([O-])CCc1c[nH]c2ccccc12.[Cu+2].c1cnc2c(c1)ccc1cccnc12 [compound 6, Complex 6]",3.3
